According to patent US20120165383A1, “INFLAMMATORY EYE DISEASE” (MASSACHUSETTS EYE & EAR INFIRMARY, priority 2004, published 2012):

Tests used:
VEGF = test: Retinal VEGF levels, ELISA, EIU rats; assay type: in vivo, rat; conditions: for LPS-induced increase of VEGF levels in the retina: 1 mg/kg GA i.p. 24 h before LPS, FIG. 5
Procedure: (§1) Materials and Methods: Female Lewis rats received a single intraperitoneal injection of 1 mg/kg GA or vehicle (DMSO). EIU was induced 24 hours later by a footpad injection of 200 mg/kg lipopolysaccharide (LPS).
(§2) Retinal levels of VEGF, TNF-α, and leukocyte total levels of the LPS receptor CD14 were quantified with an ELISA method, whereas membranous CD14 levels were assessed with membrane precipitation and subsequent immunoblotting. For the ELISA, one day after the administration of the LPS rats were euthanized and retinal lysates were prepared on ice in RIPA lysis buffer (1% NP-40, 0.5% deoxycholate (DOC), 1% SDS, 150 mmol/L NaCl, 50 mmol/L Tris-HCl [pH 8.0]) containing sodium fluorid, […], phenylmethylsulfonylfluorid (PMSF), leupeptin and aprotinin. Protein concentration was determined by Bradford assay (Protein Assay, Bio-Rad, Hercules, Calif.). Samples containing the same amount of protein were assayed for their VEGF, TNF-α and CD14 levels with a commercially available kit (R&D systems, CA) as per the instructions of the manufacturer.

TNF-α = test: Retinal TNF-α levels, ELISA, EIU rats; assay type: in vivo, rat; conditions: for LPS-induced increase of TNF-alpha levels in the retina: 1 mg/kg GA i.p. 24 h before LPS, FIG. 6
Procedure: as §1, §2

[1] = Phase I trials in various neoplasias; cited from earlier work
leukocyte adhesion [2] = test: Quantitative endothelial cell-neutrophil adhesion assay in vitro, endotoxin-induced uveitis (EIU) rats; assay type: cell-based, rat; conditions: 1 mg/kg GA i.p. 24 h before LPS; evaluated 24 h after LPS; vs DMSO vehicle
Procedure: as §1
(§3) Twenty-four hours after the administration of LPS, leukocyte adhesion was evaluated in vitro with quantitative endothelial cell-neutrophil adhesion assays and ex vivo with concanavalin A lectin staining of retinal flatmounts, as follows. After the induction of deep anesthesia in the rat, the chest cavity was opened, and a 14-gauge perfusion cannula was introduced to the left ventricle. The right atrium was opened with a 12-gauge needle to achieve outflow. With the heart providing the motive force, 250 mL/kg PBS was administered from the perfusion cannula to remove erythrocytes and non-adherent leukocytes. […] Lectin staining was followed by 1% bovine serum albumin (BSA)/PBS perfusion for 1 minute, and PBS perfusion alone for 4 minutes, to remove excess concanavalin A. The retinas were flatmounted in a water-based fluorescence anti-fading medium (Fluoromount; Southern Biotechnology, Birmingham, Ala.) and imaged by fluorescence microscopy (Axioplan, FITC filter, 40×; Carl Zeiss, Oberkochen, Germany). […] Leukocyte location was scored as being either arteriolar, venular, or capillary. The total number of adherent leukocytes per retina was counted. […]

leukocyte adhesion [3] = test: Leukocyte adhesion ex vivo, concanavalin A lectin staining of retinal flatmounts, EIU rats; assay type: in vivo, rat; conditions: 1 mg/kg GA i.p. 24 h before LPS, evaluated 24 h after LPS, FIGS. 9-11
Procedure: as §1, §3

[4] = tested on: myeloperoxidase (MPO) activity; test: Leukocyte activation, myeloperoxidase (MPO) activity assay, EIU rats; assay type: in vivo, rat; conditions: 1 mg/kg GA i.p. 24 h before LPS, leukocytes from rats with EIU, FIG. 7
Procedure: as §1
(§4) Leukocyte activation was quantified with a myeloperoxidase (MPO) activity assay and blood-retinal barrier breakdown was assessed by Evans Blue extravasation. Animals were anesthetized and Evans blue dye (Sigma) dissolved in normal saline (30 mg/ml) was injected through the tail vein at a dosage of 45 mg/kg body weight. After the dye had circulated for 120 minutes, the chest cavity was opened and blood samples were obtained from the left ventricle to assess the Evans blue plasma concentration. These blood samples were centrifuged at 16,000 g for 5 minutes. […] The absorbance of Evans blue was measured by spectrophotometry as described below. […] The background-subtracted absorbance was determined by measuring each sample at 620 nm (absorbance maximum for Evans blue in formamide) and 740 nm (absorbance minimum). The concentrations of dye in the extracts and the blood samples were calculated using a standard curve of Evans blue in formamide. Blood-ocular barrier breakdown was calculated using the following equation, with results being expressed in microliters of plasma per gram of retina dry weight times hours of dye circulating time. […]

blood-retinal barrier = test: Blood-retinal barrier breakdown by Evans Blue extravasation, EIU rats; assay type: in vivo, rat; conditions: 1 mg/kg GA i.p. 24 h before LPS
Procedure: as §1, §4

NF-κB = test: Retinal NF-κB activity, modified ELISA (Trans-AM), EIU rats; assay type: in vivo, rat; conditions: 1 mg/kg GA i.p. 24 h before LPS, FIG. 4
Procedure: as §1
(§5) Retinal activities of NF-κB and HIF-1α were quantified with a modified ELISA method as described in Poulaki et al., Am. J. Pathol. 165(2):457-69 (2004) and Poulaki et al., J. Clin. Invest. 109(6):805-15 (2002). NF-κB activation was analyzed using the Trans-AM NF-κB […] transcription factor assay kit (Active Motif, Carlsbad, Calif.) according to the manufacturer's instructions, as previously described (Mitsiades et al., Proc. Natl. Acad. Sci. USA, 99:14374-14379 (2002); Mitsiades et al., Blood, 99:4525-4530 (2002)). […] Transcription factor binding to the target oligonucleotide was detected by incubation with respective specific primary monoclonal antibodies, visualized by anti-IgG horseradish peroxidase conjugate and developing solution, and quantified at 450 nm with a reference wavelength of 655 nm. Background binding was calculated by adding in selected wells the respective consensus oligonucleotides in excess (20 pmol/well) as soluble competitors that prevented transcription factor binding to the probe immobilized on the plate. […]

HIF-1α = test: Retinal HIF-1α activity, modified ELISA binding assay, EIU rats; assay type: in vivo, rat; conditions: 1 mg/kg GA i.p. 24 h before LPS, FIG. 3
Procedure: as §1, §5

CD14 = test: Leukocyte total levels of the LPS receptor CD14, EIU rats; assay type: in vivo, rat; conditions: 1 mg/kg GA i.p. 24 h before LPS, FIG. 1
Procedure: as §1, §2

membrane CD14 = test: Membranous CD14 levels in leukocytes, membrane precipitation and immunoblotting, EIU rats; assay type: in vivo, rat; conditions: 1 mg/kg GA i.p. 24 h before LPS, FIG. 2
Procedure: Retinal levels of VEGF, TNF-α, and leukocyte total levels of the LPS receptor CD14 were quantified with an ELISA method, whereas membranous CD14 levels were assessed with membrane precipitation and subsequent immunoblotting. […] Protein concentration was determined by Bradford assay (Protein Assay, Bio-Rad, Hercules, Calif.). […]
Neutrophils were isolated from whole blood by density gradient centrifugation with Histopaque® 1083 cell separation media (Sigma, St Louis, Mo.) according to the manufacturer's instructions. […] The preparations contained>85% monocytes as determined by eosin and methylene blue staining (Leukostat Staining System, Fisher Scientific, Pittsburgh, Pa.). […] The samples were cleared by centrifugation (14,000 rpm, 30 min, 40° C.) and assessed for protein concentration. Biotinylated proteins, representing the cell surface proteins, were immunoprecipitated with Streptavidin-agarose for 2 hours at 40° C., electrophoresed in an SDS-PAGE and CD14 levels were detected by Western Blotting as described.

[5] = tested on: intercellular adhesion molecule 1 (ICAM-1); test: Retinal ICAM-1 levels, EIU rats; assay type: in vivo, rat; conditions: rats with EIU; FIG. 8
Procedure: as §1

[6] = attributed to instability; cited from earlier work
[7] = stated for 17AAG in the description, no conditions given

C=CCNC1=C2C[C@@H](C)C[C@H](OC)[C@H](O)[C@@H](C)/C=C(\C)[C@H](OC(N)=O)[C@@H](OC)/C=C\C=C(/C)C(=O)NC(=CC1=O)C2=O [17AAG, 17-Allylamino-17-demethoxygeldanamycin]
expression of VEGF (VEGF; [7]): reduces
expression of TNF-α (TNF-α; [7]): reduces
pharmacokinetic profile [1]: favorable pharmacokinetic profile
side effects [1]: transient and manageable side effects

COC1=C2C[C@@H](C)C[C@H](OC)[C@H](O)[C@@H](C)/C=C(\C)[C@H](OC(N)=O)[C@@H](OC)/C=C\C=C(/C)C(=O)NC(=CC1=O)C2=O [Geldanamycin]
LPS-induced increase in leukocyte adhesion in vitro (leukocyte adhesion [2]): significantly suppressed
LPS-induced increase in leukocyte adhesion ex vivo (leukocyte adhesion [3]): significantly suppressed
MPO activity [4]: significantly suppressed
MPO activity ([4]; listed as geldanamycin): reduces
vascular leakage (blood-retinal barrier breakdown) (blood-retinal barrier; FIG. 12): significantly suppressed
vascular leakage (blood-retinal barrier breakdown) (blood-retinal barrier; FIG. 12, listed as geldanamycin): decreases
LPS-induced increase of NF-κB activity in the retina (NF-κB): significantly suppressed
LPS-induced increase of NF-κB activity in the retina (NF-κB; listed as geldanamycin): decreases
LPS-induced increase of HIF-1α activity in the retina (HIF-1α): significantly suppressed
LPS-induced increase of HIF-1α activity in the retina (HIF-1α; listed as geldanamycin): decreases
LPS-induced increase of VEGF levels in the retina (VEGF): significantly suppressed
LPS-induced increase of VEGF levels in the retina (VEGF; listed as geldanamycin): decreases
LPS-induced increase of TNF-alpha levels in the retina (TNF-α): significantly suppressed
LPS-induced increase of TNF-alpha levels in the retina (TNF-α; listed as geldanamycin): decreases
LPS-induced increase in total CD14 levels in the leukocytes (CD14): does not affect
LPS-induced increase in total CD14 levels in the leukocytes (CD14; listed as GA): did not reduce
membrane CD14 levels in leukocytes (membrane CD14): decreases
membrane CD14 levels in leukocytes (membrane CD14; listed as GA): significantly decreased
LPS-induced upregulation of retinal ICAM-1 levels [5]: decreases

C[C@@H]1C[C@H]2O[C@@H]2/C=C\C=C\C(=O)Cc2c(Cl)c(O)cc(O)c2C(=O)O1 [radicicol, Radicicol]
activity in animals [6]: little or no activity
